The supplement of paper PMC4862054
Where “and” joins values, the source holds several entries; their conditions need not be identical. Equal entries are not always repeated.

How the values were obtained:
Test in all cases: normalised viability (% of control), CellTiter-Blue; higher = more viable cells (about 100 = DMSO control)
Conditions in all cases: incubation time: 72 h
MDA-MB-453 = tested on: MDA-MB-453
Summary of the method: (§1)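 Each value is normalised viability at a single listed concentration of the series. Breast cancer cell lines in 384-well plates were incubated 72 h with compound and read by CellTiter-Blue fluorescence at 560/590 nm, with vehicle set to 100 and a positive kill control to 0 on every plate.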

DU-4475 = tested on: DU-4475
Summary of the method: as §1

CAL-148 = tested on: CAL-148
Summary of the method: as §1

CAL-120 = tested on: CAL-120
Summary of the method: as §1

BT-474 = tested on: BT-474
Summary of the method: as §1

Hs578T = tested on: Hs578T
Summary of the method: as §1

CAL-85-1 = tested on: CAL-85-1
Summary of the method: as §1

MFM-223 = tested on: MFM-223
Summary of the method: as §1

HCC1599 = tested on: HCC1599
Summary of the method: as §1

CAL-51 = tested on: CAL-51
Summary of the method: as §1

HCC1143 = tested on: HCC1143
Summary of the method: as §1

SK-BR-3 = tested on: SK-BR-3
Summary of the method: as §1

HDQ-P1 = tested on: HDQ-P1
Summary of the method: as §1

MDA-MB-436 = tested on: MDA-MB-436
Summary of the method: as §1

HCC1937 = tested on: HCC1937
Summary of the method: as §1

O=c1[nH]cc(F)c(=O)[nH]1 [Fluorouracil]
normalised viability [%]
Conditions	3 nM	10 nM	30 nM	100 nM	1000 nM	10000 nM
BT-474	–	108	–	–	108	94
CAL-51	105	–	100	92.9	–	–
CAL-85-1	105	–	101	115	–	–
CAL-120	–	114	–	–	95.8	54.9
CAL-148	111	–	109	103	–	–
DU-4475	120	–	103	85.6	–	–
HCC1143	–	99.5	–	–	91	64.9
HCC1599	–	102	–	–	96.1	76.9
HCC1937	–	90.6	–	–	112	75.3
HDQ-P1	105	–	114	99.9	–	–
Hs578T	–	111	–	–	106	55.6
MDA-MB-436	–	103	–	–	87.8	73.5
MDA-MB-453	113	–	106	99.1	–	–
MFM-223	–	106	–	–	98.5	94.3
SK-BR-3	–	108	–	–	62.4	43.1

COc1ncc(-c2ccc3nccc(-c4ccnnc4)c3c2)cc1NS(=O)(=O)c1ccc(F)cc1F
normalised viability [%]
Conditions	0.3 nM	1 nM	3 nM	10 nM	100 nM	1000 nM
BT-474	–	110	–	–	19.2	6.63
CAL-51	93.7	–	75.3	56.5	–	–
CAL-85-1	89.5	–	75.9	73.2	–	–
CAL-120	–	84.2	–	–	28.9	16.1
CAL-148	88.2	–	96.4	85.4	–	–
DU-4475	87.5	–	94.4	82.1	–	–
HCC1143	–	72.4	–	–	35.4	16.5
HCC1599	–	88	–	–	34.5	29.3
HCC1937	–	94	–	–	47.2	32.5
HDQ-P1	95.3	–	70.5	51.8	–	–
Hs578T	–	107	–	–	33.5	9.34
MDA-MB-436	–	105	–	–	34.2	22.8
MDA-MB-453	103	–	67.2	36.7	–	–
MFM-223	–	99.9	–	–	21.3	14.6
SK-BR-3	–	77.7	–	–	14.2	9.4

CS(=O)(=O)CCNCc1ccc(-c2ccc3ncnc(Nc4ccc(OCc5cccc(F)c5)c(Cl)c4)c3c2)o1 [Lapatinib]
Conditions	normalised viability
BT-474, 10 nM	97.6% and 106%
BT-474, 1000 nM	37.3% and 43.9%
BT-474, 10000 nM	8.89% and 18.7%
CAL-51, 3 nM	122% and 101%
CAL-51, 30 nM	117% and 97.8%
CAL-51, 100 nM	112% and 102%
CAL-85-1, 3 nM	97.7% and 91.7%
CAL-85-1, 30 nM	90.3% and 92.4%
CAL-85-1, 100 nM	94.6% and 91.4%
CAL-120, 10 nM	92.4% and 99.8%
CAL-120, 1000 nM	92% and 102%
CAL-148, 3 nM	92.2% and 89.8%
CAL-148, 30 nM	89.5% and 93.5%
CAL-148, 100 nM	89.3% and 83.7%
DU-4475, 3 nM	104% and 85.5%
DU-4475, 30 nM	97.9% and 96.2%
DU-4475, 100 nM	95.9% and 91.3%
HCC1143, 10 nM	70.7% and 83.8%
HCC1143, 1000 nM	76.2% and 89%
HCC1143, 10000 nM	71% and 82.7%
HCC1599, 10 nM	108% and 96.7%
HCC1599, 10000 nM	63.5% and 83.8%
HCC1937, 1000 nM	91.3% and 113%
HCC1937, 10000 nM	35.8% and 53.3%
HDQ-P1, 100 nM	87.1% and 110%
Hs578T, 1000 nM	93.5% and 95.4%
Hs578T, 10000 nM	24.9% and 33.1%
MDA-MB-436, 10 nM	92.8% and 106%
MDA-MB-436, 1000 nM	91.3% and 112%
MDA-MB-436, 10000 nM	22.6% and 43.3%
MDA-MB-453, 3 nM	100% and 118%
MDA-MB-453, 30 nM	72.4% and 85.8%
MDA-MB-453, 100 nM	59.9% and 59%
MFM-223, 10 nM	92.8% and 95.8%
MFM-223, 1000 nM	95.8% and 96.9%
MFM-223, 10000 nM	49.5% and 66%
SK-BR-3, 10 nM	78.8% and 92.4%
SK-BR-3, 1000 nM	18.2% and 22.2%
SK-BR-3, 10000 nM	6.7% and 8.97%

Cn1cnc2c(F)c(Nc3ccc(Br)cc3F)c(C(=O)NOCCO)cc21 [MEK-162]
normalised viability [%]
Conditions	0.3 nM	1 nM	3 nM	10 nM	100 nM	1000 nM
BT-474	–	119	–	–	115	119
CAL-51	112	–	104	100	–	–
CAL-85-1	94.6	–	95.1	99.1	–	–
CAL-120	–	98.1	–	–	93.8	93.4
CAL-148	94	–	91	97.2	–	–
DU-4475	100	–	94	78.1	–	–
HCC1143	–	100	–	–	70.7	61.8
HCC1599	–	90.5	–	–	88.4	76.5
HCC1937	–	72.6	–	–	94.8	88.5
HDQ-P1	110	–	105	113	–	–
Hs578T	–	126	–	–	102	97
MDA-MB-436	–	114	–	–	76.4	99.6
MDA-MB-453	115	–	94	110	–	–
MFM-223	–	90.8	–	–	89.4	94.5
SK-BR-3	–	111	–	–	111	102

CN1CCN(c2ccc3nc(-c4c(N)c5c(F)cccc5[nH]c4=O)[nH]c3c2)CC1 [Dovitinib]
normalised viability [%]
Conditions	3 nM	10 nM	30 nM	100 nM	1000 nM	10000 nM
BT-474	–	111	–	–	97.4	121
CAL-51	119	–	113	107	–	–
CAL-85-1	85.3	–	86.4	97.5	–	–
CAL-120	–	88.3	–	–	91.8	83.7
CAL-148	91.6	–	95.5	89.6	–	–
DU-4475	94.3	–	85.5	89.4	–	–
HCC1143	–	86.9	–	–	87.9	69.8
HCC1599	–	98	–	–	98.8	89
HCC1937	–	116	–	–	80.7	76.9
HDQ-P1	91	–	93.3	88.3	–	–
Hs578T	–	106	–	–	99.3	96
MDA-MB-436	–	86.7	–	–	97	81.1
MDA-MB-453	114	–	82.3	84	–	–
MFM-223	–	80.5	–	–	56.4	61
SK-BR-3	–	84.8	–	–	94.8	72.9

CCCC(CCC)C(=O)O [Valproic acid]
normalised viability [%]
Conditions	3 nM	10 nM	30 nM	100 nM	1000 nM	10000 nM
BT-474	–	113	–	–	124	121
CAL-51	104	–	95.1	96.5	–	–
CAL-85-1	86.4	–	84.7	96.6	–	–
CAL-120	–	104	–	–	104	93.9
CAL-148	99.9	–	97.9	109	–	–
DU-4475	88.6	–	81.7	76.3	–	–
HCC1143	–	110	–	–	104	94.4
HCC1599	–	97.4	–	–	90.7	82
HCC1937	–	126	–	–	86	92.6
HDQ-P1	124	–	116	122	–	–
Hs578T	–	110	–	–	140	127
MDA-MB-436	–	96.6	–	–	89	132
MDA-MB-453	112	–	102	109	–	–
MFM-223	–	103	–	–	87.2	97.3
SK-BR-3	–	102	–	–	107	95.9
